# Test system: P. falciparum 3D7
# Test: P. falciparum 3D7 SCID mouse model, in vivo efficacy
# Set-up: species or system Plasmodium falciparum (SCID mice)
# Details: oral 150 mg kg^–1 day^–1, four consecutive days, one animal
# Experimental: The animal experiments against P. berghei were carried out at the Swiss Tropical and Public Health Institute adhering to local and national regulations of laboratory animal welfare in Switzerland (awarded permission no. BL530). Protocols are regularly reviewed and revised following approval by the local authority (Amt für Lebensmittelsicherheit and Veterinärwesen Basel-Land). Female mice infected with GFP-expressing P. berghei (ANKA strain, donated by A. P. Waters and C. J. Janse, Leiden University, The Netherlands) were analyzed for in vivo efficacy of 7e and 8a as described previously.[18],[19] Parasitemia was determined using flow cytometry with a detection limit of 1 parasite in 1000 erythrocytes. Compound activity was calculated as the difference between the mean parasitemia for the control and treated groups (n = 3, each) expressed relative to the control group. 7e and 8a were suspended in 70/30 Tween 80/ethanol, diluted 10-fold with water and administered orally 4, 24, 48, and 72 h after infection. 7e was analyzed at 30, 10, and 3 mg kg^–1, 8a at 50, and 10 mg kg^–1. In vivo efficacy against P. falciparum was conducted at The Art of Discovery, TAD, Bizkaia, Spain, according to the previously described standard assay.[16],[17]
structure (smiles),measurement,value
"CCCNc1ccc(C(=O)/C=C(\O)C(F)(F)C(F)(F)F)cn1 [7e, 4,4,5,5,5-Pentafluoro-3-hydroxy-1-(6-(propylamino)pyridin-3-yl)pent-2-en-1-one]",effect on parasite load,decreased the parasite load below the starting parasitemia
